Patent US20220009920A1 (GB005, Inc., priority 2020, published 2022)

How the values were obtained:
Assay in all cases: Large panel kinase profiling
Type in all cases: biochemical
Conditions in all cases: 1 μM test article, 1 mM ATP
[1] = target: T1, NEK9 (Homo sapiens, UniProt Q8TD19)
T1 construct: AssayQuant Technologies, Inc. (assay service)
T1 sequence (Q8TD19 1-979): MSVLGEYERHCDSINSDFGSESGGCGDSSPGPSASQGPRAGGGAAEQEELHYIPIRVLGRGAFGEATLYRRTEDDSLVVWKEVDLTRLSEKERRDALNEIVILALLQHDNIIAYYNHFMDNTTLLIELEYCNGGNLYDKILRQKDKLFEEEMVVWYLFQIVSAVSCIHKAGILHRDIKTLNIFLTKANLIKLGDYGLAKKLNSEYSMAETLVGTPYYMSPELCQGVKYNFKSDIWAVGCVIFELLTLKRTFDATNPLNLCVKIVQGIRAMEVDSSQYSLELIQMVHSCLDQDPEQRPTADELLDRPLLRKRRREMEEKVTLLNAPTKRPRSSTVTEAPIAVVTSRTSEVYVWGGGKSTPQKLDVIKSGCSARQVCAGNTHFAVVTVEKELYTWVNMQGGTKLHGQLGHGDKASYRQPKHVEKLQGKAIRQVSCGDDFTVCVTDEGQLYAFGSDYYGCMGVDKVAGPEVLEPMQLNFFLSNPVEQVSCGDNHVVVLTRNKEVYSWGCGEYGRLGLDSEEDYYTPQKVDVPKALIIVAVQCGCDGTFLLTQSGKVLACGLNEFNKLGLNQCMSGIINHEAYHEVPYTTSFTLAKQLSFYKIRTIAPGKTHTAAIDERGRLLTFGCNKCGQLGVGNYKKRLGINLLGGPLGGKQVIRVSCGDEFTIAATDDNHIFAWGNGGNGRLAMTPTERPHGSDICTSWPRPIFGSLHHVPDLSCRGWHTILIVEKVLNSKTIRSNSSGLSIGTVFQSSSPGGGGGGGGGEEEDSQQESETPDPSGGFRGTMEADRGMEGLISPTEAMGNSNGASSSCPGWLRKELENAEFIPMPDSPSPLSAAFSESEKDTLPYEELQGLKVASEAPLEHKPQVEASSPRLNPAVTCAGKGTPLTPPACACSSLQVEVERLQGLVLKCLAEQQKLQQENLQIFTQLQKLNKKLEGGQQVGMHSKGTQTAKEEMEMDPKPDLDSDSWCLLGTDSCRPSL
In short: (§1)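 Fluorescence intensity (Ex 360 nm, Em 485 nm) was monitored continuously, once per minute, in PhosphoSens CSox-Sensor kinase reactions held at 30° C. Compound was present at 1 μM and ATP at 1 mM.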

[2] = target: RPS6KA1/RSK1 (Homo sapiens, UniProt Q15418)
Chain of RPS6KA1/RSK1 (Q15418 whole entry): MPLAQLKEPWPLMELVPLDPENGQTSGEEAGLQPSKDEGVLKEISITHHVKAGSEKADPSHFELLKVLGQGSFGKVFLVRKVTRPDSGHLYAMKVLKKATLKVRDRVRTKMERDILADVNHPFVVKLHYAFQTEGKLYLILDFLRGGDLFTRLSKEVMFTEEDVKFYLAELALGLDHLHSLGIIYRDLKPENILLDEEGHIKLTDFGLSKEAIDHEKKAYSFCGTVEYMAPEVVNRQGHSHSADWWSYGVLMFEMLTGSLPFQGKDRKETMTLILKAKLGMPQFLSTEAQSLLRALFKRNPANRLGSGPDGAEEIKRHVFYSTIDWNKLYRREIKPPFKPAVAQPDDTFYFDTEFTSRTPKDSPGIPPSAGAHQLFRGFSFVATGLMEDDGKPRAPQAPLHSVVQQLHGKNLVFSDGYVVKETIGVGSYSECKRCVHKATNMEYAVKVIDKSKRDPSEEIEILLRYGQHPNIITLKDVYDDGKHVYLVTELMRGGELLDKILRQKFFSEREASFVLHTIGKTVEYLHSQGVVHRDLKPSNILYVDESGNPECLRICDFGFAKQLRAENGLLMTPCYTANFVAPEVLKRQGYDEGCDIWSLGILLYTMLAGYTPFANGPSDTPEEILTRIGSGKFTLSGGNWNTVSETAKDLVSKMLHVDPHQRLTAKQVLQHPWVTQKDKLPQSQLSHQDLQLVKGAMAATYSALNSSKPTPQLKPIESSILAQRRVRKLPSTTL
In short: as §1

[3] = target: MAP3K1 (Homo sapiens, UniProt Q13233)
Chain of MAP3K1 (Q13233 whole entry, species assumed): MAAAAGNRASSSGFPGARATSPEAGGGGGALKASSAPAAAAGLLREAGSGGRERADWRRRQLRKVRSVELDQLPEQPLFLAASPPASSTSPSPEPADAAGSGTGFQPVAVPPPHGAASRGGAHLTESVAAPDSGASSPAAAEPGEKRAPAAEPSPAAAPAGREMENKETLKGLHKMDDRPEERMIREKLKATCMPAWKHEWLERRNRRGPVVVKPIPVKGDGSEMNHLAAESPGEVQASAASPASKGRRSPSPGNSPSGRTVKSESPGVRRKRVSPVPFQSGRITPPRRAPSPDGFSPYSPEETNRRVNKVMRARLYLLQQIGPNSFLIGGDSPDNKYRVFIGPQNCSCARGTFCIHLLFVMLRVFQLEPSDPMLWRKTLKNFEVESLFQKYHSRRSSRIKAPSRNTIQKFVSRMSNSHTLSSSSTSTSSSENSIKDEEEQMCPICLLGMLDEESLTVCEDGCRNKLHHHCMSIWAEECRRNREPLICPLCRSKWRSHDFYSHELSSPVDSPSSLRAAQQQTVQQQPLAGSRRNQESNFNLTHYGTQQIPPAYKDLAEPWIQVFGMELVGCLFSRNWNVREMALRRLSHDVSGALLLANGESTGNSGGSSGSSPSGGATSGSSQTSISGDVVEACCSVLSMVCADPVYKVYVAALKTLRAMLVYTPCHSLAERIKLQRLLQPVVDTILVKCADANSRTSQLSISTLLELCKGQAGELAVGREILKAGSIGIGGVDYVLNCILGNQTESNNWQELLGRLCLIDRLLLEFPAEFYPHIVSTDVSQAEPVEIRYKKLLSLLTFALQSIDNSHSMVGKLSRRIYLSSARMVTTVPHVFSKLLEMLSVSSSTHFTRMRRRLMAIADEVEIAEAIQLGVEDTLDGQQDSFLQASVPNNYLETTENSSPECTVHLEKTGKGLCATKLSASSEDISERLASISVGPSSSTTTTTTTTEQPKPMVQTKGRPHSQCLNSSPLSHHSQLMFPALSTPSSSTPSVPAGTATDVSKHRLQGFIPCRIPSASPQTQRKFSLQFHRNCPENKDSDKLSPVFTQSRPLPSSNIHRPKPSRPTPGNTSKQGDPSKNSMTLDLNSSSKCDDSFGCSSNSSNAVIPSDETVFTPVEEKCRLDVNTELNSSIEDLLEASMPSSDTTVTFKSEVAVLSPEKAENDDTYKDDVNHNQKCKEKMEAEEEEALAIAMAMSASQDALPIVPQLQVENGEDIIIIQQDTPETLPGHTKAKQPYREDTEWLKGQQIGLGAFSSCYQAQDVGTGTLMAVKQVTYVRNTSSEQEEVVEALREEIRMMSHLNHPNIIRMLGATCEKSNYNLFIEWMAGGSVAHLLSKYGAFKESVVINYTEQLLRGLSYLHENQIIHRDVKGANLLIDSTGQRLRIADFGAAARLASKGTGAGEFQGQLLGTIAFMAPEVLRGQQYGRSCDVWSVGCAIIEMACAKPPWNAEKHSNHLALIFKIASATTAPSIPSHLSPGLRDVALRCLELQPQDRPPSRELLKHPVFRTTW
In short: as §1

[4] = target: T2, PDK1 (Homo sapiens, UniProt O15530)
T2 sequence (O15530 1-556): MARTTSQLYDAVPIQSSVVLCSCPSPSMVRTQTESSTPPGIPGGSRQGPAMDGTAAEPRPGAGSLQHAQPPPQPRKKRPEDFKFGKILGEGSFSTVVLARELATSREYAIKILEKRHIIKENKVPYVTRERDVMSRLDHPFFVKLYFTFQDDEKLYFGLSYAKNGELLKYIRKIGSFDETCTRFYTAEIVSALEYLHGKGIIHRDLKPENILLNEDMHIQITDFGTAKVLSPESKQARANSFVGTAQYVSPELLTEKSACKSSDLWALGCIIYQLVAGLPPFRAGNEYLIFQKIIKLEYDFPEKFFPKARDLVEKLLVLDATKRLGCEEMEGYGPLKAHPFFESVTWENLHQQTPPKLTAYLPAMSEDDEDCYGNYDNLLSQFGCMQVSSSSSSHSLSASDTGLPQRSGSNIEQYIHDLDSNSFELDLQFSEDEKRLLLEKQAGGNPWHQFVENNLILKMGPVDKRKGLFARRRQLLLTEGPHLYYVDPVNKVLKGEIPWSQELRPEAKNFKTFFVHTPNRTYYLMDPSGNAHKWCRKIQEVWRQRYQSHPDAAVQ
In short: as §1

[5] = target: T3, MAP3K8 (Homo sapiens, UniProt P41279)
T3 construct: AssayQuant Technologies, Inc. (service provider)
T3 sequence (P41279 whole entry, species assumed): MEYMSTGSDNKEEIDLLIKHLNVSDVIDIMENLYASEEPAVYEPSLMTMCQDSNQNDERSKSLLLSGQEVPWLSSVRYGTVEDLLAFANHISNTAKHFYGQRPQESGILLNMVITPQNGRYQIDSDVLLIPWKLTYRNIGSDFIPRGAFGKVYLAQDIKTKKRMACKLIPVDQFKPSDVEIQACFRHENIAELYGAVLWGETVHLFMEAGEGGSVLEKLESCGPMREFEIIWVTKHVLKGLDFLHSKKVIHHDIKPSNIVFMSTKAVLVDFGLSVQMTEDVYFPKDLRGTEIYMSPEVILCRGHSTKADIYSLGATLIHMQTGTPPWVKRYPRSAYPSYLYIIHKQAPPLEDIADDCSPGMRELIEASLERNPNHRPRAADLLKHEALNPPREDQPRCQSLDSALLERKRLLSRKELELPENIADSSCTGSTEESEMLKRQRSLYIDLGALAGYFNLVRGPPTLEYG
In short: as §1

[6] = target: T4, DYRK4 (Homo sapiens, UniProt Q9NR20)
T4 construct: AssayQuant Technologies, Inc. (service laboratory)
T4 sequence (Q9NR20 1-520): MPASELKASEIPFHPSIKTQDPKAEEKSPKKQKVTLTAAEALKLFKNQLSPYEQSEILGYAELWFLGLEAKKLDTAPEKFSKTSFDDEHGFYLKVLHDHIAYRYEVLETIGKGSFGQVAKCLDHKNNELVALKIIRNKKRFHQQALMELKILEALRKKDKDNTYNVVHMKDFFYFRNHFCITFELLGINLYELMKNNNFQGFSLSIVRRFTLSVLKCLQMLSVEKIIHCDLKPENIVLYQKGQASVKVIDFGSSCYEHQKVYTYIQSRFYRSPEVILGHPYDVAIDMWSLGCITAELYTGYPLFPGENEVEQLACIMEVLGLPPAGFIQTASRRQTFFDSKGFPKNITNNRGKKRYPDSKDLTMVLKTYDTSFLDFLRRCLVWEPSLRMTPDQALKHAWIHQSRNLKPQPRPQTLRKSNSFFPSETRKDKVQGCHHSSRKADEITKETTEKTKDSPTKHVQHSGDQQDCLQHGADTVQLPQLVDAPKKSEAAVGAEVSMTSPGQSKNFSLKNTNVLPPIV
In short: as §1

[7] = target: T5, TYK2(JH1JH2) (Homo sapiens, UniProt P29597)
T5 construct: TYK2(JH1JH2); AssayQuant Technologies, Inc. (contract laboratory that ran the panel)
T5 sequence (P29597 575-1187 limits assumed, species assumed): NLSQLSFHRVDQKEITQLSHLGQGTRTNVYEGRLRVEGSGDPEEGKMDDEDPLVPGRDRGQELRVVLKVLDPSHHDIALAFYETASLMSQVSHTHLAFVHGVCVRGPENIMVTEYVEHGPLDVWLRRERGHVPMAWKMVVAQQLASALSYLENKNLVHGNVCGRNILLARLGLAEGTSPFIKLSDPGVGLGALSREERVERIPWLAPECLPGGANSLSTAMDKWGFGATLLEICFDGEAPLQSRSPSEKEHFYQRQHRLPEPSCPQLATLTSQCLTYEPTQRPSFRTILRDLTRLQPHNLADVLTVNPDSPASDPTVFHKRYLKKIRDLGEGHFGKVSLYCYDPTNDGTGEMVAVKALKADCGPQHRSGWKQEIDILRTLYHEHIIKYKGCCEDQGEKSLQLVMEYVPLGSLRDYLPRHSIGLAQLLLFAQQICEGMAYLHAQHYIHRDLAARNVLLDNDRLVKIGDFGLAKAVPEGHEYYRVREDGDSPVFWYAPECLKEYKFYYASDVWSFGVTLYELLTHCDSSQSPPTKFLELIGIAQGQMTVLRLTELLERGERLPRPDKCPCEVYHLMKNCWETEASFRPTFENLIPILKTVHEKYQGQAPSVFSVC
In short: as §1

| Structure (SMILES) | inhibition at 1 µM [1] | inhibition at 1 µM [2] | inhibition at 1 µM [3] | inhibition at 1 µM [4] | inhibition at 1 µM [5] | inhibition at 1 µM [6] | inhibition at 1 µM [7] |
| --- | --- | --- | --- | --- | --- | --- | --- |
| C=CC(=O)N1CCCC(c2c(F)cc(C(N)=O)c3[nH]c4c(c23)CCCCC4)C1 (single isomer, unassigned) [Compound 5-6] | -9.3% | 6.7% | 6.4% | 22.8% | 7.4% | 23.2% | 18.9% |
| C=CC(=O)N1CCC[C@@H](c2c(F)cc(C(N)=O)c3[nH]c4c(c23)CC2(CC4)CC2)C1 [Compound 6-2, (S)-5-(1-acryloylpiperidin-3-yl)-6-fluoro-1,2,4,9-tetrahydrospiro[carbazole-3,1′-cyclopropane]-8-carboxamide] | 18% | -49.1% | -7.9% | -7.8% | 10.1% | 15.4% | -27.1% |
| C=CC(=O)N1CCC[C@@H](c2c(F)cc(C(N)=O)c3[nH]c4c(c23)CCC4)C1 [Compound 10-2, (S)-8-(1-acryloylpiperidin-3-yl)-7-fluoro-1,2,3,4-tetrahydrocyclo-penta[b]indole-5-carboxamide] | 2.4% | -29.2% | 10.3% | -28.3% | 4.5% | -6.6% | 28.6% |
